Patent US9006269B2, “Azetidine derivatives” (Vernalis (R&D) Ltd., priority 2008, dated 2015)
Blank lines part the entries; values can stand above or below the compound they belong to.

How the values were obtained:
[1] = biological target: rat FAAH protein (30-579) (Rattus norvegicus (Rat), UniProt P97612); test: Rat FAAH inhibition assay (AAMCA fluorescence); assay type: biochemical; details: 3-hour pre-incubation with compound, 120 nM FAAH; read-out: FAAH Rat IC50 (nM) 180 minutes
From the text: Rat FAAH Inhibition Assay
Active rat FAAH protein (30-579) was isolated as described in the literature. The coding sequence of amino acids 30-579 of rat FAAH were cloned into the expression vector pET28a to provide an N-terminal His-tag. Following expression, the His-tagged FAAH′ (30-579) was isolated using a method based on Patricelli et al., 1998; Biochemistry vol 37, p 15177 with a combination of chelating sepharose, heparin sepharose and size exclusion chromatography.
FAAH activity was determined by measuring the liberation of the highly fluorescent 7-amino, 4-methyl Coumarin (AMC) generated during hydrolysis of the substrate Arachidonoyl 7-Amino, 4-methyl Coumarin Amide (AAMCA) by FAAH. Inhibition of FAAH activity was determined as a percentage reduction of the fluorescence determined in the absence of compound.
The assay was carried out in black-walled, clear bottom, 384-well plates. 27.5 μl of FAAH protein (in FAAH assay buffer: 50 mM Hepes, 0.01% Triton X-100, 1 mM EDTA, 0.5 mg/ml BSA (fatty-acid-free), pH 8.2) was pre-incubated, at 120 nM, with increasing concentrations of compounds (2.5 μl in 100% DMSO) for 0, 1 or 3 hours at room temperature. 2.5 μl of DMSO was added for ‘total’ controls (100% FAAH activity) and 2.5 μl of URB-597, a known inhibitor of FAAH activity, (at a final, saturating, concentration of 10 μM) was used for ‘non-specific’ controls (0% FAAH activity). 20 μl of 7.5 μM AAMCA substrate (in FAAH assay buffer) was then added to all wells and incubated at room temperature for a further 1.5 hours. Fluorescence was determined at an excitation wavelength of 355 nm and an emission wavelength of 460 nm using a Flexstation plate reader (Molecular Devices, UK). Inhibition of FAAH activity, by the compounds, was determined as the percentage reduction in relative fluorescence units (RFU) compared to the ‘total’ controls (in the absence of compound) minus the ‘non-specific’ controls. IC50 values were determined, from 10-point dose response curves, in XL-Fit using a 4-Parameter Logistic Model (Sigmoidal Dose-Response Model).
The following Table 1 provides the 3-hour incubation results of testing the compounds of Examples 1-4 herein in the above rat FAAH inhibition assay.

FAAH = FAAH (Homo sapiens (Human), UniProt O00519); test: Intrinsic FAAH inhibitory potency (summary statement); assay type: biochemical; details: qualitative statement
FAAH, sequence (O00519 whole entry): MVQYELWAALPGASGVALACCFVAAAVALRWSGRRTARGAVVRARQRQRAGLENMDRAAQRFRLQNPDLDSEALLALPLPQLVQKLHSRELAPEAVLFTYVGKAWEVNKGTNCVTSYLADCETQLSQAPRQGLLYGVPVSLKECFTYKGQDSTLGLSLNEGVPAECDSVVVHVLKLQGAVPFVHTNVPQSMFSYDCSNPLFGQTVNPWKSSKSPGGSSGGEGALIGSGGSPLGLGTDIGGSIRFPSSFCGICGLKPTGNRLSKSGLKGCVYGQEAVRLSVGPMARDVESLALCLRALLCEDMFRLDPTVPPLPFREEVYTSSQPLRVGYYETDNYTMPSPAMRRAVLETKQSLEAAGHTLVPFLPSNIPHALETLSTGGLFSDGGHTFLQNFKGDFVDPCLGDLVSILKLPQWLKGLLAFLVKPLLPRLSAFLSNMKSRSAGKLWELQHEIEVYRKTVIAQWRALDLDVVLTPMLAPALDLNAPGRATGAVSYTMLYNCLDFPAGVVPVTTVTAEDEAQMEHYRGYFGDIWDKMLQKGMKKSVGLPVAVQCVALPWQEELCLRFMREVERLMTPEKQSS

[2] = Plasma concentrations after oral administration in laboratory rats; assay type: in vivo, rat
human FAAH 1 = human FAAH 1 (Homo sapiens (Human), UniProt O00519); test: Human FAAH 1 assay (AAMCA fluorescence); assay type: biochemical; details: 1 hour pre-incubation with compound, 10 nM FAAH; read-out: FAAH Human IC50 (nM) 60 minutes (n = 2)
human FAAH 1, sequence (O00519 whole entry): as above
Experimental: Part B Human FAAH 1 Assay
Human FAAH 1 activity was determined by measuring the liberation of the highly fluorescent 7-amino, 4-methyl Coumarin (AMC) generated during hydrolysis of the substrate arachidonoyl 7-amino, 4-methyl coumarin amide (AAMCA) by FAAH. Inhibition of human FAAH 1 activity was determined as a percentage reduction of the fluorescence determined in the absence of compound.
The assay was carried out in black-walled, clear bottom, 384-well plates. 27.5 μl of human FAAH 1 protein (in FAAH assay buffer: 50 mM Hepes, 0.01% Triton X-100, 1 mM EDTA, 0.5 mg/ml BSA (fatty-acid-free), pH 8.2) was pre-incubated, at 10 nM, with increasing concentrations of compounds (2.5 μl in 100% DMSO) for 1 hour at room temperature. 2.5 μl of DMSO was added for ‘total’ controls (100% FAAH activity) and 2.5 μl of URB-597, a known inhibitor of FAAH activity, (at a final, saturating, concentration of […]) was used for ‘non-specific’ controls (0 FAAH activity). 20 μl of 7.5 μM AAMCA substrate (in FAAH assay buffer) was then added to all wells and incubated at room temperature for a further 4 hours. Fluorescence was determined at an excitation wavelength of 355 nm and an emission wavelength of 460 nm using a Flexstation plate reader (Molecular Devices, UK). Inhibition of human FAAH 1 activity, by the compounds, was determined as the percentage reduction in relative fluorescence units (RFU) compared to the ‘total’ controls (in the absence of compound) minus the ‘non-specific’ controls. IC50 values were determined, from 10-point dose response curves, in XL-Fit using a 4-Parameter Logistic Model (Sigmoidal Dose-Response Model).

[3] = tested on: carrageenan-induced thermal hypersensitivity; test: Rat carrageenan induced thermal hyperalgesia model of inflammatory pain; assay type: in vivo
Experimental: Part C Rat Carrageenan Induced Thermal Hyperalgesia Model of Inflammatory Pain.
Male Wistar rats were assessed for thermal pain sensitivity by applying a focused light beam onto the hind paws and recording the time to paw withdrawal, before and after local intraplantar administration of carrageenan. After 3 h, thermal pain sensitivity was reassessed in treated and untreated hind paws prior to dosing with test compound or vehicle. Indomethacin was administered as a positive control.
Male Sprague Dawley rats were tail-marked, and acclimatised to the plantar boxes on 3 separate occasions (6, 5 and 1 day prior to the test day) for at least 5 min on each occasion. On the pre-test day, the rats were habituated to the test room for at least 30 min prior to testing. The rats were put into the Hargreaves plantar boxes, allowed to settle down for approx 3-5 min, and challenged with the mobile radiant heat source. The latency to withdraw both left and right hindpaws from the heat source was determined on 2 occasions (3 min apart). The mean across the 2 challenges was recorded as the baseline for each animal. Rats 18 and 30 were not used in the study as they had very high baseline readings, and they were replaced by 61 and 63. Rats were then allocated to drug treatments ensuring the baseline latencies were balanced across groups.
On the test day, rats received intraplantar carrageenan lambda (100 uL of 1% in saline), or saline in right hindpaw 3 hours before testing. Four hours before testing, rats received VER-158416 (1, 3, or 10 mg/kg) or vehicle (5% EtOH: 95% (1% methylcellulose in water) p.o. Subsequently, 30 min before testing, rats received a second injection of either indomethacin 10 mg/kg or vehicle (50% 0.1M Na2CO3: 47.5% phosphate buffered saline (PBS): 2.5% 1M HCl) i.p. At the scheduled test time following drug treatment, the latency to withdraw the paw from the radiant heat source was reassessed by a single reading.
For example, the compound of Example 13 above was tested as follows:
Rats were dosed with intraplantar carrageenan at t=0; the compound of Example 13 (1, 3 & 10 mg/kg po) or vehicle (5% EtOH: 95% (1% methylcellulose in water) at t=2 h; indomethacin (10 mg/kg ip) or vehicle at t=2.5 h and thermal sensitivity was measured at t=3 h. Thus all rats received both oral and ip dosing.

rat FAAH protein (30-579), sequence (P97612 30-579): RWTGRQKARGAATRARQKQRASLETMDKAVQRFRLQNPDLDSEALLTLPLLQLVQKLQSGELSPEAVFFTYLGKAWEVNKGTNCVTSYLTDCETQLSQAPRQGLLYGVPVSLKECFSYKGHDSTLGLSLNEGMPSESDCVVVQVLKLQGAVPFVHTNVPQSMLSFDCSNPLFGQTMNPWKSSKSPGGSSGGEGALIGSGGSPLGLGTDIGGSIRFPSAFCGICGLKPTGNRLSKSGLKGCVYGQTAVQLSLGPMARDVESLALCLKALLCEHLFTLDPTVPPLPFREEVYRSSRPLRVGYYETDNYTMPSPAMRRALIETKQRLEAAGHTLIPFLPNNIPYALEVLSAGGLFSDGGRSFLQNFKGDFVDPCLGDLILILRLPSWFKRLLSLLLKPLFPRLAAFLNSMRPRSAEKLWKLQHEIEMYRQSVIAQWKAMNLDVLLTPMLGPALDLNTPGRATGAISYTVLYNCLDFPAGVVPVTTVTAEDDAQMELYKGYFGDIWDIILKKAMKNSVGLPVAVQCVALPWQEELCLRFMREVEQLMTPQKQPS

Structure (SMILES): O=C(Nc1ccccc1)N1CC(Oc2ccc(-c3ccccc3)cc2)C1 [Example 1, 3-(biphenyl-4-yloxy)-azetidine-1-carboxylic acid phenylamide]
IC50 [1]: 135 nM

Structure (SMILES): O=C(Nc1cccc(F)c1)N1CC(Oc2ccc(-c3ccccc3)cc2)C1 [Example 2, 3-(Biphenyl-4-yloxy)-azetidine-1-carboxylic acid (3-fluoro-phenyl)-amide]
IC50 [1]: 279 nM

Structure (SMILES): COCCOc1cccc(-c2ccc(OC3CN(C(=O)Nc4ccncn4)C3)nc2)c1 [Example 5, 3-{5-[3-(2-Methoxy-ethoxy)-phenyl]-pyridin-2-yloxy}-azetidine-1-carboxylic acid pyrimidin-4-ylamide]
IC50 (human FAAH 1): 9 nM

Structure (SMILES): COCCOc1cccc(-c2ccc(OC3CN(C(=O)Nc4cnccn4)C3)nc2)c1 [Example 6, 3-{5-[3-(2-Methoxy-ethoxy)-phenyl]-pyridin-2-yloxy}-azetidine-1-carboxylic acid pyrazin-2-ylamide]
IC50 (human FAAH 1): 73 nM

Structure (SMILES): COCCOc1cccc(-c2ccc(OC3CN(C(=O)Nc4cccnn4)C3)nc2)c1 [Example 7, 3-{5-[3-(2-Methoxy-ethoxy)-phenyl]-pyridin-2-yloxy}-azetidine-1-carboxylic acid pyridazin-3-ylamide]
IC50 (human FAAH 1): 19 nM
intrinsic-FAAH inhibitory potency (FAAH): good
plasma concentrations after oral administration [2]: high and prolonged

Structure (SMILES): O=C(Nc1cccnn1)N1CC(Oc2ccc(-c3cccc(OCCOCc4ccccc4)c3)cn2)C1 [Example 9, 3-{5-[3-(2-Benzyloxy-ethoxy)-phenyl]-pyridin-2-yloxy}-azetidine-1-carboxylic acid pyridazin-3-ylamide]
IC50 (human FAAH 1): 3 nM

Structure (SMILES): O=C(Nc1cccnn1)N1CC(Oc2ccc(-c3c(F)cccc3F)cn2)C1 [Example 14, 3-[5-(2,6-Difluoro-phenyl)-pyridin-2-yloxy]-azetidine-1-carboxylic acid pyridazin-3-ylamide]
IC50 (human FAAH 1): 14 nM

Structure (SMILES): O=C(Nc1cccnn1)N1CC(Oc2ccc(-c3ccccc3F)cn2)C1 [Example 18, 3-[5-(2-Fluoro-phenyl)-pyridin-2-yloxy]-azetidine-1-carboxylic acid pyridazin-3-ylamide]
IC50 (human FAAH 1): 16 nM
intrinsic-FAAH inhibitory potency (FAAH): good
plasma concentrations after oral administration [2]: high and prolonged

More lines, main results first:

IC50 [1]: 77 nM
Structure (SMILES): O=C(Nc1ccccc1F)N1CC(Oc2ccc(-c3ccccc3)cc2)C1 [Example 3, 3-(Biphenyl-4-yloxy)-azetidine-1-carboxylic acid (2-fluoro-phenyl)-amide]

IC50 [1]: 67 nM
intrinsic-FAAH inhibitory potency (FAAH): good
plasma concentrations after oral administration [2]: high and prolonged
Structure (SMILES): O=C(Nc1cccnc1)N1CC(Oc2ccc(-c3ccccc3)cc2)C1 [Example 4, 3-(Biphenyl-4-yloxy)-azetidine-1-carboxylic acid pyridin-3-ylamide]

IC50 (human FAAH 1): 18 nM
Structure (SMILES): COCCOc1cccc(-c2ccc(OC3CN(C(=O)Nc4cccnc4)C3)nc2)c1 [Example 8, 3-{5-[3-(2-Methoxy-ethoxy)-phenyl]-pyridin-2-yloxy}-azetidine-1-carboxylic acid pyridin-3-ylamide]

IC50 (human FAAH 1): 49 nM
Structure (SMILES): O=C(Nc1cccnn1)N1CC(Oc2ccc(-c3cccc(OCCO)c3)cn2)C1 [Example 10, 3-{5-[3-(2-Hydroxy-ethoxy)-phenyl]-pyridin-2-yloxy}-azetidine-1-carboxylic acid pyridazin-3-ylamide]

IC50 (human FAAH 1): 19 nM
Structure (SMILES): COCCOc1ccc(OC)c(-c2ccc(OC3CN(C(=O)Nc4cccnn4)C3)nc2)c1 [Example 11, 3-{5-[2-Methoxy-5-(2-methoxy-ethoxy)-phenyl]-pyridin-2-yloxy}-azetidine-1-carboxylic acid pyridazin-3-ylamide]

IC50 (human FAAH 1): 12 nM
Structure (SMILES): COc1ccc(OC)c(-c2ccc(OC3CN(C(=O)Nc4cccnn4)C3)nc2)c1 [Example 12, 3-[5-(2,5-Dimethoxy-phenyl)-pyridin-2-yloxy]-azetidine-1-carboxylic acid pyridazin-3-ylamide]

IC50 (human FAAH 1): 38 nM
intrinsic-FAAH inhibitory potency (FAAH): good
plasma concentrations after oral administration [2]: high and prolonged
Structure (SMILES): O=C(Nc1cccnn1)N1CC(Oc2ccc(-c3ccccc3)cn2)C1 [Example 13, 3-(5-Phenyl-pyridin-2-yloxy)-azetidine-1-carboxylic acid pyridazin-3-ylamide]
effect on contralateral paw sensitivities to thermal pain ([3]; 1, 3, 10 mg/kg p.o., rat): no effect
inhibition of carrageenan-induced thermal hypersensitivity ([3]; 1, 3, 10 mg/kg p.o., rat): dose-related inhibition
reduction of pain sensitivity to below normal levels ([3]; 1, 3, 10 mg/kg p.o., rat): did not reduce pain sensitivity to below normal levels
statistical significance of inhibition vs vehicle/carrageenan group ([3]; at 3 and 10 mg/kg doses p.o., one way ANOVA, Newman-Keuls): reached statistical significance

IC50 (human FAAH 1): 7 nM
Structure (SMILES): COCCOc1ccc(Cl)c(-c2ccc(OC3CN(C(=O)Nc4cccnn4)C3)nc2)c1 [Example 15, 3-{5-[2-Chloro-5-(2-methoxy-ethoxy)-phenyl]-pyridin-2-yloxy}-azetidine-1-carboxylic acid pyridazin-3-yl-amide]

IC50 (human FAAH 1): 42 nM
Structure (SMILES): O=C(Nc1cnccn1)N1CC(Oc2ccc(-c3ccccc3F)cn2)C1 [Example 16, 3-[5-(2-Fluoro-phenyl]-pyridin-2-yloxy]-azetidine-1-carboxylic acid pyrazin-2-ylamide]

plasma concentrations after oral administration [2]: high and prolonged
Structure (SMILES): COc1ccccc1-c1ccc(OC2CN(C(=O)Nc3cccnn3)C2)nc1 [Example 17, 3-[5-(2-Methoxy-phenyl)-pyridin-2-yloxy]-azetidine-1-carboxylic acid pyridazin-3-ylamine]

IC50 (human FAAH 1): 26 nM
Structure (SMILES): COc1cccc(-c2ccc(OC3CN(C(=O)Nc4cccnn4)C3)nc2)c1F [Example 19, 3-[5-(2-Fluoro-3-methoxy-phenyl)-pyridin-2-yloxy]-azetidine-1-carboxylic acid pyridazin-3-ylamide]
